Assay results as given in patent US20100184802A1, “Bicycloheteroaryl Compounds as P2X7 Modulators and Uses Thereof” (priority 2006, published 2010).
pIC50: −log10 of the molar value.

Experiments:
[1] = Half-life in human liver microsomes (HLM); assay type: in vitro ADME; settings: human liver microsomes (HLM, HL101); human liver microsomes 0.78 mg/mL, 1 μM compound, NADPH, pH 7.4, 37° C.
Description: Test compounds (1 μM) are incubated with 3.3 mM MgCl2 and 0.78 mg/mL HLM (HL101) in 100 mM potassium phosphate buffer (pH 7.4) at 37° C. on the 96-deep well plate. The reaction mixture is split into two groups, a non-P450 and a P450 group. NADPH is only added to the reaction mixture of the P450 group. An aliquot of samples of P450 group is collected at 0, 10, 30, and 60 min time point, where 0 min time point indicated the time when NADPH is added into the reaction mixture of P450 group. […] Collected aliquots are extracted with acetonitrile solution containing an internal standard. […] The compound concentration in supernatant is measured by LC/MS/MS system.
The half-life value is obtained by plotting the natural logarithm of the peak area ratio of compounds/internal standard versus time. The slope of the line of best fit through the points yields the rate of metabolism (k). This is converted to a half-life value using following equations:

[2] = biological target: T1, P2X7 receptor (IL-1β release from THP-1 cells) (Homo sapiens, UniProt Q99572); test: IL-1β release assay in differentiated THP-1 cells stimulated with BzATP (Example 9); assay type: cell-based; settings: for inhibition at 0.3 µM: 0.3 μM concentration, BzATP 250 uM, read-out: IL-1β % Inhib. @ 0.3 or 0.1 μM; for pIC50: released IL-1β as in Example 9, four parameter logistic fit
T1 construct: host or cells: THP-1 cells differentiated with LPS and IFN-γ
T1 sequence (Q99572 1-595): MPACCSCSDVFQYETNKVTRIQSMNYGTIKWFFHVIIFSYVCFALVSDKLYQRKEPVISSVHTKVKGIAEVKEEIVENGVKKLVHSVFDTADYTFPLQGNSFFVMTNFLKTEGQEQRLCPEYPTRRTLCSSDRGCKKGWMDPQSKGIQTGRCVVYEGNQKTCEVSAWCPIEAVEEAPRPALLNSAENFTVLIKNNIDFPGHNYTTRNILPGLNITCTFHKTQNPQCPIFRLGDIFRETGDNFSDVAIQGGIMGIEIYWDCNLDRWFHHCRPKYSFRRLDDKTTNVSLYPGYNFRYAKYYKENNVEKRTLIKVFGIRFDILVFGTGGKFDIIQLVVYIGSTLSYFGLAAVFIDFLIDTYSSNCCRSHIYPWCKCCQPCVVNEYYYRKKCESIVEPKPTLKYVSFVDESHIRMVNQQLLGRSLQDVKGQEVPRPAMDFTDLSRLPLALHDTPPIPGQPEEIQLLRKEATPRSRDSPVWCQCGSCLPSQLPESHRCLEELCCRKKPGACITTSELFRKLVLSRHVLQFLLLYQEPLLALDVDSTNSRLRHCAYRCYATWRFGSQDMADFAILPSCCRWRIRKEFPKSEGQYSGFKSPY
Description: The cells are then pretreated for 30 minutes with the compound of interest at the appropriate concentration in RPMI media containing 100 IU/mL penicillin, 100 ug/mL streptomycin. […] 30 uL of cell supernatant is then collected and IL-1β levels determined via ELISA (R&D systems Cat. #HSLB50) according to manufacturer's recommendations using the Tecan Safire plate reader. Background adjusted IL-1β levels of drug treated and non-treated cells are used to calculate the percent inhibition.
The compounds set forth in Table 1 were tested for activity in a cellular model as described herein. […] Measurements were made and IC50 values, presented in Table 2, below, were determined by fitting the data to a four parameter logistic equation using GraphPad Prism software (GraphPad Software, Inc). The equation may be expressed by the following formula:
Y=Bottom+(Top−Bottom)/(1+10̂((Log EC50−X)*HillSlope))
Where X is the logarithm of concentration, Y is the response and Y starts at Bottom and goes to Top with a sigmoid shape.

[3] = Pharmacokinetic evaluation following intravenous and oral administration in rats; assay type: in vivo; settings: rat, plasma; male Sprague-Dawley rats; PO 1 to 5 mg/kg vs IV, AUCinf dose-normalized; mean % F
Description: Male Sprague-Dawley rats are acclimatized for at least 24 hours prior to experiment initiation. During the acclimation period, all animals receive food and water ad libitum. However, food but not water is removed from the animals' cages at least 12 hours before initiation of the experiment. During the first 3 hours of experimentation, the animals receive only water ad libitum. At least three animals each are tested for intravenous and oral dosage. For intravenous formulation, compounds were dissolved (0.25 to 1 mg/mL) in a mixture of 3% dimethyl sulfoxide, 40% PEG 400 and the rest percentage of 40% Captisol in water (w/v). The animals are weighed before dosing. The determined body weight is used to calculate the dose volume for each animal.
Dose volume (mL/kg)=1 mg/kg/formulation concentration (mg/mL)
In instances where the formulation concentrations were less than 0.5 mg/mL, the dosing volume is about 2 mL/kg.
For oral formulation, compounds of this invention are suspended (0.5 to 0.75 mg/mL) in a mixture of 5% of 10% Tween 80 in water (v/v) and 95% of 0.5% methyl cellulose in water (w/v). PO rats are typically dosed through oral gavage following the same dose volume formula as IV to achieve a dose level of 1 to 5 mg/kg. For IV dosing, blood samples are collected (using a pre-heparinized syringe) via the jugular vein catheter at 2, 5, 15, 30, 60, 120, 180, 300, 480, and 1440 minutes post dosing. For PO dosing, blood samples are collected (using a pre-heparinized syringe) via the jugular vein catheter before dosing and at 5, 15, 30, 60, 120, 180, 300, 480, and 1440 minutes post dosing. About 250 uL of blood is obtained at each time point from the animal. Equal volumes of 0.9% normal saline are replaced to prevent dehydration. The whole blood samples are maintained on ice until centrifugation. Blood samples are then centrifuged at 14,000 rpm for 10 minutes at 4° C. and the upper plasma layer transferred into a clean vial and stored at −80° C. The resulting plasma samples are then analyzed by liquid chromatography-tandem mass spectrometry. Following the measurement of plasma samples and dosing solutions, plasma concentration-time curve is plotted. Plasma exposure is calculated as the area under the concentration-time curve extrapolated to time infinite (AUCinf). The AUCinf is averaged and the oral bioavailability (% F) for individual animal is calculated as:
AUCinf(PO)/AUCinf(IV), normalized to their respective dose levels.
The % F is reported as the mean % F of all animals dosed orally with the compound of the invention at the specified level (Table 4).

Compound	half-life at 1 μM [1] [min]	inhibition at 0.3 µM [2] [%]	pIC50 [2]	bioavailability [3] [%]
C[C@H](CO)n1ccc2c(NC(=O)CC3CCCCCC3)cccc2c1=O [Compound 606, 2-Cycloheptyl-N-[2-((R)-2-hydroxy-1-methyl-ethyl)-1-oxo-1,2-dihydro-isoquinolin-5-yl]-acetamide]	23.4	> 76	8.34	0 to 25
O=C(CC1CCCCCC1)Nc1cccc2c(=O)n(CCO)ccc12 [Compound 544]	20.4	> 76	7.56	0 to 25
O=C(CC12CC3CC(CC(C3)C1)C2)Nc1cccc2c1CCN(C(CO)CO)C2=O [Compound 508]	49.8	> 76	9.11	0 to 25
NC(=O)[C@@H](CO)n1ccc2c(NC(=O)CC34CC5CC(CC(C5)C3)C4)cccc2c1=O [Compound 599, (R)-2-[5-(2-Adamantan-1-yl-acetylamino)-1-oxo-1H-isoquinolin-2-yl]-3-hydroxy-propionamide]	42	> 76	8.96	0 to 25
CC(C(N)=O)n1ccc2c(NC(=O)CC34CC5CC(CC(C5)C3)C4)cccc2c1=O (stereo not shown) [Compound 530]	34.8	26 to 50	8.36	0 to 25
CC12CC3CC(C)(C1)CC(CC(=O)Nc1cccc4c(=O)n(CC5CCNCC5)ccc14)(C3)C2 [Compound 518, 2-(3,5-Dimethyl-adamantan-1-yl)-N-(1-oxo-2-piperidin-4-ylmethyl-1,2-dihydro-isoquinolin-5-yl)-acetamide]	324	> 76	7.22	0 to 25
CC(C(=O)Nc1cccc2c(=O)n([C@H](C)C(N)=O)ccc12)C1CCCCCC1 (stereo partly shown) [Compound 600]	15	> 76	7.92	0 to 25
C[C@H](C(N)=O)n1ccc2c(NC(=O)CC3CCCCCC3)cccc2c1=O [Compound 558]	61.2	> 76	7.62	0 to 25
C[C@H](C(N)=O)n1ccc2c(NC(=O)CC3(O)CCCCCC3)cccc2c1=O [Compound 555]	45.6	> 76	7.38	26 to 50
O=C(CC12CC3CC(CC(C3)C1)C2)Nc1cccc2c(=O)n(C(CO)CO)ccc12 [Compound 507]	34.8	> 76	9.70	0 to 25
O=C(CC1(O)CCCCCC1)Nc1cccc2c(=O)n(CCO)ccc12 [Compound 520]	72.6	51 to 75	6.78	26 to 50
C[C@@H](C(N)=O)n1ccc2c(NC(=O)CC34CC5CC(CC(C5)C3)C4)cccc2c1=O [Compound 572, (S)-2-[5-(2-Adamantan-1-yl-acetylamino)-1-oxo-1H-isoquinolin-2-yl]-propionamide]	40.8	–	8.92	26 to 50
O=C(CC12CC3CC(CC(C3)C1)C2)Nc1cccc2c(=O)n(CC3CCNCC3)ccc12 [Compound 501]	22.8	> 76	8.21	0 to 25
CC(C)[C@H](C(N)=O)n1ccc2c(NC(=O)CC34CC5CC(C)(CC(C)(C5)C3)C4)cccc2c1=O [Compound 529]	39	26 to 50	8.33	0 to 25
C[C@H](C(N)=O)n1ccc2c(NC(=O)CC34CC5CC(CC(C5)C3)C4)cccc2c1=O [Compound 559]	16.2	> 76	9.44	0 to 25
C[C@H](C(N)=O)n1ccc2c(NC(=O)CC34CC5CC(CC(C5)C3)C4)c(Cl)ccc2c1=O [Compound 602, (R)-2-[5-(2-Adamantan-1-yl-acetylamino)-6-chloro-1-oxo-1H-isoquinolin-2-yl]-propionamide]	45.6	–	10.06	0 to 25
C[C@H](CO)N1CCc2c(NC(=O)CC34CC5CC(CC(C5)C3)C4)cccc2C1=O [Compound 526]	37.8	> 76	9.00	0 to 25
C[C@H](C(=O)O)n1ccc2c(NC(=O)CC34CC5CC(CC(C5)C3)C4)cccc2c1=O [Compound 601]	22.2	> 76	8.04	0 to 25
